Assay results as given in US10357036B2, “Compounds for controlling arthropods” (priority 2015, dated 2019).
Several values for one entry are separate records, joined by “and”; a condition that tells them apart may be missing. Equal entries are not always repeated.

Legend:
[1] = system: Ctenocephalides felis; test: Ctenocephalides felis in vitro contact test with adult cat fleas; type: in vivo; details: application rate 5 μg/cm^2 (=500 g/ha); after 48 h; dead or moribund fleas
Description: (§1) For the coating of the test tubes, 9 mg of active ingredient are first dissolved in 1 ml of acetone p.a. and then diluted to the desired concentration with acetone p.a. 250 μl of the solution are distributed homogeneously on the inner walls and the base of a 25 ml glass tube by turning and rocking on an orbital shaker (rocking rotation at 30 rpm for 2 h). With 900 ppm of active ingredient solution and internal surface area 44.7 cm^2, given homogeneous distribution, an area-based dose of 5 μg/cm^2 is achieved.
After the solvent has evaporated off, the tubes are populated with 5-10 adult cat fleas (Ctenocephalides felis), sealed with a perforated plastic lid and incubated in a horizontal position at room temperature and ambient humidity. After 48 h, efficacy is determined. To this end, the tubes are stood upright and the fleas are knocked to the base of the tube. Fleas which remain motionless at the base or move in an uncoordinated manner are considered to be dead or moribund.
100% efficacy means that all the fleas were dead or moribund. 0% efficacy means that no fleas were harmed.

[2] = system: Rhipicephalus sanguineus; test: Rhipicephalus sanguineus in vitro contact test with adult brown dog ticks; type: in vivo; details: after 48 h
Description: as §1
After the solvent has evaporated off, the tubes are populated with 5-10 adult dog ticks (Rhipicephalus sanguineus), sealed with a perforated plastic lid and incubated in a horizontal position in the dark at room temperature and ambient humidity. After 48 h, efficacy is determined. To this end, the ticks are knocked to the base of the tube and incubated on a hotplate at 45-50° C. for not more than 5 min. Ticks which remain motionless on the base or move in such an uncoordinated manner that they are unable to deliberately avoid the heat by climbing upwards are considered to be dead or moribund.
An efficacy of 100% means that all the ticks were dead or moribund. 0% efficacy means that none of the ticks were harmed.

[3] = system: Boophilus microplus; test: Boophilus microplus injection test; type: in vivo; details: 20 μg/animal; assessed after 7 days
Description: (§2) • Solvent: dimethyl sulfoxide
1 μl of the active ingredient solution is injected into the abdomen of 5 engorged adult female cattle ticks (Boophilus microplus). The animals are transferred into dishes and kept in a climate-controlled room.

[4] = system: Ctenocephalides felis; test: Ctenocephalides felis oral test; type: in vivo; details: 100 ppm in citrated cattle blood; after 2 days
[5] = system: Musca domestica; test: Musca domestica test; type: in vivo; details: 100 ppm; adult houseflies; after 2 days
Description: as §2
To produce a suitable active ingredient formulation, 10 mg of active ingredient are mixed with 0.5 ml of dimethyl sulfoxide, and the concentrate is diluted with water to the desired concentration.
Vessels containing a sponge treated with sugar solution and the active ingredient formulation of the desired concentration are populated with 10 adult houseflies (Musca domestica).

[6] = system: Spodoptera frugiperda; test: Spodoptera frugiperda spray test; type: in vivo; details: 100 g/ha; after 7 days
[7] = system: Tetranychus urticae; test: Tetranychus urticae spray test, OP-resistant (bean leaf discs); type: in vivo; details: 100 g/ha; after 6 days
Description: (§3) After 6 days, the efficacy in % is determined.

[8] = system: Phaedon cochleariae; test: Phaedon cochleariae spray test; details: 100 g/ha; after 7 days
[9] = system: Myzus persicae; test: Myzus persicae spray test (Chinese cabbage leaf discs); type: in vivo; details: 100 g/ha; after 6 days
Description: as §3

[10] = application rate 5 μg/cm^2 (=500 g/ha), dead or moribund ticks

In the case of `CC(=O)N(C)Cc1cc(-c2cnn(-c3c(Cl)cc(C(F)(C(F)(F)F)C(F)(F)F)cc3OC(F)(F)F)c2)ccc1F` [Ia-63], the efficacy [1] is reported as 100%, the efficacy [2, 10] is reported as 80% and the “efficacy (laying of fertile eggs)” value [3] is reported as 100%. For the same compound, the “efficacy (rate of extermination)” value [4] was 100%, the “efficacy (rate of extermination)” value [5] was 100% and the efficacy [6] was 100%. The efficacy [7] was 100% and the efficacy [8] was 100%.

`CC(=O)N(Cc1cc(-c2cnn(-c3c(Cl)cc(C(F)(C(F)(F)F)C(F)(F)F)cc3Cl)c2)ccc1Cl)CC1CC1` [Ia-116] was tested, and the efficacy [1] was 100%, the efficacy [2, 10] was 80% and the “efficacy (laying of fertile eggs)” value [3] was 100%. For the same compound, the “efficacy (rate of extermination)” value [4] was 100%, the “efficacy (rate of extermination)” value [5] was 100% and the efficacy [6] was 100%. For the same compound, the efficacy [7] was 100% and the efficacy [8] was 100%.

For `CCC(=O)NCc1cc(-c2cnn(-c3c(Cl)cc(C(F)(C(F)(F)F)C(F)(F)F)cc3C(F)F)c2)cnc1Cl` [Ia-154], the efficacy [9] was 90%, the efficacy [6] was 100% and the efficacy [7] was 100%. It also gave an efficacy [8] of 100%.

In the case of `CCC(=O)NC1CCc2ccc(-c3cnn(-c4c(Cl)cc(C(F)(C(F)(F)F)C(F)(F)F)cc4OC(F)F)c3)cc21` (stereo not shown) [I-Tc-03], the efficacy [1] is reported as 100%, the efficacy [2, 10] is reported as 100% and the “efficacy (laying of fertile eggs)” value [3] is reported as 100%. For the same compound, the “efficacy (rate of extermination)” value [4] was 100%, the efficacy [6] was 100% and the efficacy [7] was 100%.

For `O=C(NCc1cc(-c2cnn(-c3c(Cl)cc(C(F)(C(F)(F)F)C(F)(F)F)cc3C(F)(F)F)c2)ccc1Cl)C1CC1` [Ia-54], the efficacy [1] was 80%, the efficacy [2, 10] was 100% and the “efficacy (laying of fertile eggs)” value [3] was 100%. The “efficacy (rate of extermination)” value [4] was 100%, the “efficacy (rate of extermination)” value [5] was 100% and the efficacy [6] was 100%. For the same compound, the efficacy [8] was 100%.

With `CC(=O)NCc1cc(-c2cnn(-c3c(Cl)cc(C(F)(C(F)(F)F)C(F)(F)F)cc3C(F)(F)F)c2)ccc1F` [Ia-82] the efficacy [1] was 100%, the efficacy [2, 10] was 100% and the “efficacy (laying of fertile eggs)” value [3] was 100%. The “efficacy (rate of extermination)” value [4] was 100%, the “efficacy (rate of extermination)” value [5] was 100% and the efficacy [6] was 100%. The efficacy [7] was 100% and the efficacy [8] was 100%.

`CCC(=O)NCc1cccc(-c2cnn(-c3c(C)cc(C(F)(C(F)(F)F)C(F)(F)F)cc3Cl)c2)c1` [Ia-69] was tested, and the efficacy [1] was 100%, the efficacy ([2]; application rate 1 μg/cm^2 (=100 g/ha)) was 80% and the “efficacy (laying of fertile eggs)” value [3] was 100%. For the same compound, the “efficacy (rate of extermination)” value [4] was 100%, the “efficacy (rate of extermination)” value [5] was 100% and the efficacy [6] was 100%. The efficacy [8] was 100%.

In the case of `CC(=O)NCc1cc(-c2cnn(-c3c(Cl)cc(C(F)(C(F)(F)F)C(F)(F)F)cc3C#N)c2)ccc1Cl` [Ia-104], the efficacy [1] is reported as 100%, the efficacy [2, 10] is reported as 100% and the “efficacy (laying of fertile eggs)” value [3] is reported as 100%. For the same compound, the “efficacy (rate of extermination)” value [4] was 100%, the “efficacy (rate of extermination)” value [5] was 100% and the efficacy [6] was 100%. The efficacy [7] was 100% and the efficacy [8] was 100%.

`CCC(=O)NCc1cc(-c2cnn(-c3c(Cl)cc(C(F)(C(F)(F)F)C(F)(F)F)cc3Cl)c2)ccc1Cl` [Ia-16] was tested, and the efficacy [1] was 100%, the efficacy [2, 10] was 100% and the “efficacy (laying of fertile eggs)” value [3] was 100%. For the same compound, the “efficacy (rate of extermination)” value [4] was 100%, the “efficacy (rate of extermination)” value [5] was 100% and the efficacy [6] was 100%. The efficacy [8] was 100%.

With `CC(=O)NCc1cc(-c2cnn(-c3c(Cl)cc(C(F)(C(F)(F)F)C(F)(F)F)cc3C(F)(F)F)c2)cnc1Cl` [Ia-139] the efficacy [1] was 100%, the efficacy [2, 10] was 100% and the “efficacy (laying of fertile eggs)” value [3] was 100%. For the same compound, the “efficacy (rate of extermination)” value [4] was 100%, the “efficacy (rate of extermination)” value [5] was 100% and the efficacy [6] was 100%. It also gave an efficacy [7] of 90% and an efficacy [8] of 100%.

With `C=CCN(Cc1cc(-c2cnn(-c3c(Cl)cc(C(F)(C(F)(F)F)C(F)(F)F)cc3Cl)c2)ccc1Cl)C(C)=O` [Ia-113] the efficacy [1] was 100%, the “efficacy (laying of fertile eggs)” value [3] was 100% and the “efficacy (rate of extermination)” value [4] was 100%. The “efficacy (rate of extermination)” value [5] was 100%, the efficacy [6] was 100% and the efficacy [7] was 90%. It also gave an efficacy [8] of 100%.

For `N#Cc1cc(C(F)(C(F)(F)F)C(F)(F)F)cc(Cl)c1-n1cc(-c2ccc(F)c(CNC(=O)C3CC3)c2)cn1` [Ia-107], the efficacy [1] was 100%, the “efficacy (laying of fertile eggs)” value [3] was 100% and the “efficacy (rate of extermination)” value [4] was 100%. For the same compound, the “efficacy (rate of extermination)” value [5] was 100%, the efficacy [6] was 100% and the efficacy [7] was 100%. It also gave an efficacy [8] of 100%.

In the case of `CC(=O)N(C)Cc1cc(-c2cnn(-c3c(Cl)cc(C(F)(C(F)(F)F)C(F)(F)F)cc3Cl)c2)ccc1Cl` [Ia-20], the efficacy [1] is reported as 100%, the efficacy [2, 10] is reported as 80% and the “efficacy (laying of fertile eggs)” value [3] is reported as 100%. The “efficacy (rate of extermination)” value [4] was 100%, the “efficacy (rate of extermination)” value [5] was 90% and the efficacy [6] was 100%. It also gave an efficacy [7] of 100% and an efficacy [8] of 100%.

`CCC(=O)N(C)Cc1cc(-c2cnn(-c3c(Cl)cc(C(F)(C(F)(F)F)C(F)(F)F)cc3OC(F)(F)F)c2)cnc1Cl` [Ia-135] gave an efficacy [9] of 90%, an efficacy [6] of 100% and an efficacy [7] of 100%. The efficacy [8] was 100%.

`O=C(NCc1cc(-c2cnn(-c3c(Cl)cc(C(F)(C(F)(F)F)C(F)(F)F)cc3OC(F)F)c2)ccc1Cl)C1CC1` [Ia-52] was tested, and the efficacy [1] was 100%, the efficacy [2, 10] was 100% and the “efficacy (laying of fertile eggs)” value [3] was 100%. For the same compound, the “efficacy (rate of extermination)” value [4] was 100%, the “efficacy (rate of extermination)” value [5] was 100% and the efficacy [6] was 100%. It also gave an efficacy [8] of 100%.

`CCC(=O)NCc1cc(-c2cnn(-c3c(Cl)cc(C(F)(C(F)(F)F)C(F)(F)F)cc3Cl)c2)ccc1F` [Ia-30] was tested, and the efficacy [1] was 100%, the efficacy [2, 10] was 100% and the “efficacy (laying of fertile eggs)” value [3] was 100%. The “efficacy (rate of extermination)” value [4] was 100%, the “efficacy (rate of extermination)” value [5] was 100% and the efficacy [6] was 100%.

`CCC(=O)NCc1cc(-c2cnn(-c3c(Cl)cc(C(F)(C(F)(F)F)C(F)(F)F)cc3C(F)(F)F)c2)cnc1Cl` [Ia-138] gave an efficacy [9] of 90%, an efficacy [6] of 100% and an efficacy [7] of 90%. For the same compound, the efficacy [8] was 100%.

`O=C(NCc1cc(-c2cnn(-c3c(Cl)cc(C(F)(C(F)(F)F)C(F)(F)F)cc3C(F)F)c2)ccc1F)C1CC1` [Ia-58] was tested, and the efficacy [9] was 70%, the efficacy [6] was 100% and the efficacy [7] was 100%. The efficacy [8] was 100%.

In the case of `CC(=O)N(C)Cc1cc(-c2cnn(-c3c(Cl)cc(C(F)(C(F)(F)F)C(F)(F)F)cc3Cl)c2)cnc1Cl` [Ia-73], the efficacy [1] is reported as 100%, the “efficacy (laying of fertile eggs)” value [3] is reported as 100% and the “efficacy (rate of extermination)” value [4] is reported as 100%. For the same compound, the “efficacy (rate of extermination)” value [5] was 100%, the efficacy [6] was 100% and the efficacy [7] was 100% and 90%. The efficacy [8] was 100%.

With `Cc1cc(C(F)(C(F)(F)F)C(F)(F)F)cc(Cl)c1-n1cc(-c2ccc(F)c(CNC(=O)C3CC3)c2)cn1` [Ia-67] the efficacy [1] was 80%, the efficacy [2, 10] was 80% and the “efficacy (laying of fertile eggs)” value [3] was 100%. For the same compound, the “efficacy (rate of extermination)” value [4] was 100%, the “efficacy (rate of extermination)” value [5] was 100% and the efficacy [6] was 100%. The efficacy [7] was 100% and the efficacy [8] was 100%.

In the case of `CCC(=O)N(C)Cc1cc(-c2cnn(-c3c(Cl)cc(C(F)(C(F)(F)F)C(F)(F)F)cc3Cl)c2)ccc1Cl` [Ia-32], the efficacy [1] is reported as 100%, the efficacy [2, 10] is reported as 80% and the “efficacy (laying of fertile eggs)” value [3] is reported as 100%. The “efficacy (rate of extermination)” value [4] was 100%, the efficacy [6] was 100% and the efficacy [7] was 100%. For the same compound, the efficacy [8] was 100%.

In the case of `CC(=O)NCc1c(F)ccc(-c2cnn(-c3c(Cl)cc(C(F)(C(F)(F)F)C(F)(F)F)cc3OC(F)F)c2)c1F` [Ia-158], the efficacy [1] is reported as 100%, the “efficacy (laying of fertile eggs)” value [3] is reported as 100% and the “efficacy (rate of extermination)” value [4] is reported as 100%. For the same compound, the “efficacy (rate of extermination)” value [5] was 100%, the efficacy [6] was 100% and the efficacy [7] was 100%. It also gave an efficacy [8] of 100%.

`CCC(=O)N(C)Cc1cc(-c2cnn(-c3c(Cl)cc(C(F)(C(F)(F)F)C(F)(F)F)cc3Cl)c2)ccc1F` [Ia-71] was tested, and the efficacy [1] was 100%, the “efficacy (laying of fertile eggs)” value [3] was 100% and the “efficacy (rate of extermination)” value [4] was 100%. For the same compound, the “efficacy (rate of extermination)” value [5] was 100%, the efficacy [6] was 100% and the efficacy [7] was 100%. It also gave an efficacy [8] of 100%.
